Test results as given in article PMC6358863, “Involvement of the Hydroperoxy Group in the Irreversible Inhibition of Leukocyte-Type 12-Lipoxygenase by Monoterpene Glycosides Contained in the Qing Shan Lu Shui Tea” (Molecules, 2019).
Where two headings read alike, the source gives them in different places. Each block holds one compound with its values, some of them ahead of it.

How the values were obtained:
[1] = biological target: T1, leukocyte-type 12-lipoxygenase (Mus musculus, UniProt P39654); experiment: leukocyte-type 12-lipoxygenase inhibition assay (arachidonic acid, HPLC quantification); format: biochemical; settings: 25 μM arachidonic acid, 30 °C, 5 min; for inhibitory effect on leukocyte-type 12-lipoxygenase activity (in words): various concentrations (Figure 5)
T1 sequence (P39654 1-663): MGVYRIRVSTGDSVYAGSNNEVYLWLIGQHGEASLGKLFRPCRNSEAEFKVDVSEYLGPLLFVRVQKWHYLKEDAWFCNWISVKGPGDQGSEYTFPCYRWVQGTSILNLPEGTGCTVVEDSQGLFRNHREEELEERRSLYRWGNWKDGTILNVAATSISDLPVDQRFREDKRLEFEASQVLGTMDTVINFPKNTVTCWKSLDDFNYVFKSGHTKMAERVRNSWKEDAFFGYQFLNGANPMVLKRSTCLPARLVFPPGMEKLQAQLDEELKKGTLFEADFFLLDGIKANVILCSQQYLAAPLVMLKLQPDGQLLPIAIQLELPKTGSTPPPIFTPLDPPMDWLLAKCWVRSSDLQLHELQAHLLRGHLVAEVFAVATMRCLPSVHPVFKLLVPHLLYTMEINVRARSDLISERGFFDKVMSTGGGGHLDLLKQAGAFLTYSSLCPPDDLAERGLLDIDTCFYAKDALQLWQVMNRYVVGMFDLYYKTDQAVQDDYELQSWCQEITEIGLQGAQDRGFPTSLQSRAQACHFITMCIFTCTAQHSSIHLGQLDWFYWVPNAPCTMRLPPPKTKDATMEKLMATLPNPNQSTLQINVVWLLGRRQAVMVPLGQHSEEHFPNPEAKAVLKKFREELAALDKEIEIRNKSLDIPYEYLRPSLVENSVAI
Experimental: Figure 3 Inhibition of the leukocyte-type 12-lipoxygenase activity by liguroside C (closed circles) and liguroside D (open circles). Leukocyte-type 12-lipoxygenase was incubated with 25 μM arachidonic acid at 30 °C for 5 min in the standard reaction mixture, in the presence of inhibitors at various concentrations and the products were quantified using a reverse-phase HPLC. Relative enzyme activities, as compared with the activity without inhibitors, are shown.
Figure 5 Inhibition of the leukocyte-type 12-lipoxygenase activity by liguroside A (closed circles), kudingoside B (grey circles), kudingoside A (open circles), and lipedoside B-III (open lozenges). Leukocyte-type 12-lipoxygenase was incubated with 25 μM arachidonic acid, at 30 °C, for 5 min, in the standard reaction mixture in the presence of inhibitors, at various concentrations, and the products were quantified using a reverse-phase HPLC. Relative enzyme activities, as compared with the activity without inhibitors, are shown.
The lipoxygenase and cyclooxygenase reactions were carried out, as described previously. Briefly, leukocyte-type 12-lipoxygenase or 15-lipoxygenase-1 was preincubated with inhibitors, in a volume of 0.2 mL in 100 mM Tris-HCl buffer, at pH 7.4, for 5 min at 30 °C, and was then incubated with 25 μM arachidonic acid for 5 min at 30 °C. Platelet-type 12-lipoxygenase reaction was carried out the as same as leukocyte-type 12-lipoxygenase reaction, except for incubation condition of 30 min at 37 °C. 5-Lipoxygenase was preincubated in 100 mM Tris-HCl buffer at pH 7.4, 2 mM CaCl2, and 2 mM ATP, with inhibitors, for 5 min on ice and then incubated with 25 μM arachidonic acid, for 5 min at 30 °C. To reduce the metabolites of each lipoxygenase isozyme, we added glutathione peroxidase (0.1 unit) and 5 mM glutathione to the mixture, followed by incubation for another 20 min. The enzyme reactions of cyclooxygenase-1 and cyclooxygenase-2 were carried out, as described previously. Briefly, cyclooxygenase-1 and cyclooxygenase-2 were preincubated with inhibitors in a volume of 0.2 mL in 100 mM Tris-HCl buffer at pH 7.4, 2 μM hematin, and 5 mM tryptophan, for 5 min at 24 °C, and then incubated with 25 μM […], for 5 min at 24 °C. After the reaction was quenched by an addition of 50 mM HCl, 0.5 nmol of 15-HEDE were added as an internal standard for enzyme reactions. The products extracted with ice-cold diethyl ether were analyzed by a reverse-phase HPLC, using a Waters Alliance system equipped with a COSMOSIL 5C18-MS-II column (5-μm particle, 250 × 4.6 mm i.d., Nacalai), with a solvent system of methanol-water-acetic acid (80:20:0.01, v/v), at a flow rate of 1 mL/min, as previously described. Absorption at 235 nm was continuously monitored, using a Waters 2489 UV/Visible detector (Waters, Milford, MA, USA). Protein concentration was determined using a bicinchoninic acid protein assay kit (Thermo Fisher Scientific, Waltham, MA, USA), with bovine serum albumin as a standard.

[2] = biological target: T1, leukocyte-type 12-lipoxygenase; design: method as in PMID 23579993; settings: cited from earlier work
[3] = biological target: T1, leukocyte-type 12-lipoxygenase; experiment: reversibility analysis of leukocyte-type 12-lipoxygenase inhibition (preincubation, 200-fold dilution); format: biochemical
Experimental: The preincubation mixture was 200-fold diluted 0, 5, 15, and 30 min, before starting the enzyme reaction under the standard condition for the lipoxygenase assay. […] On the other hands, tested ligurosides inhibited the leukocyte-type 12-lipoxygenase activity, even after 30 min, indicating an irreversible inhibition of the enzyme activity (Figure 4). Figure 4 Reversibility analysis of the leukocyte-type 12-lipoxygenase inhibition. The leukocyte-type 12-lipoxygenase was preincubated with 6 μM quercetin, liguroside A, liguroside C, and liguroside D, at 30 °C, for 5 min, and then the mixture was 200-fold diluted in the standard lipoxygenase reaction mixture. After 0, 5, 15, and 30 min, the mixtures were incubated with 25 μM arachidonic acid at 30 °C, for 5 min. […] The products extracted with ice-cold diethyl ether were analyzed by a reverse-phase HPLC, using a Waters Alliance system equipped with a COSMOSIL 5C18-MS-II column (5-μm particle, 250 × 4.6 mm i.d., Nacalai), with a solvent system of methanol-water-acetic acid (80:20:0.01, v/v), at a flow rate of 1 mL/min, as previously described. Absorption at 235 nm was continuously monitored, using a Waters 2489 UV/Visible detector (Waters, Milford, MA, USA). Protein concentration was determined using a bicinchoninic acid protein assay kit (Thermo Fisher Scientific, Waltham, MA, USA), with bovine serum albumin as a standard.

SMILES: C/C(=C\CO[C@@H]1O[C@H](CO)[C@@H](OC(=O)/C=C\c2ccc(O)cc2)[C@H](O[C@@H]2O[C@@H](C)[C@H](O)[C@@H](O)[C@H]2O)[C@H]1O)C/C=C/C(C)(C)OO [liguroside B]
- IC50 ([2]; previous report, read-out: IC50, inhibition of leukocyte-type 12-lipoxygenase activity): 700 nM

SMILES: C=CC(C)(C/C=C/C(C)(C)OO)O[C@@H]1O[C@H](CO)[C@@H](OC(=O)/C=C/c2ccc(O)cc2)[C@H](O[C@@H]2O[C@@H](C)[C@H](O)[C@@H](O)[C@H]2O)[C@H]1O (stereo partly drawn) [liguroside C, (5E)-7-hydroperoxy-3,7-dimethyl-1,5-octadienyl-3-O-(α-L-rhamnopyranosyl)-(1′′→3′)-(4′′′-O-trans-p-coumaroyl)-β-D-glucopyranoside]
- IC50 [1]: 2900 nM

SMILES: C=CC(C)(CCC=C(C)C)O[C@@H]1O[C@H](CO)[C@@H](OC(=O)/C=C/c2ccc(O)cc2)[C@H](O[C@@H]2O[C@@H](C)[C@H](O)[C@@H](O)[C@H]2O)[C@H]1O (stereo partly drawn) [lipedoside B-III]
- inhibitory effect on leukocyte-type 12-lipoxygenase activity (in words) [1]: did not inhibit

SMILES: O=C(O)C=Cc1ccc(O)cc1 [p-Coumaric acid, reference compound]
- inhibition of leukocyte-type 12-lipoxygenase activity (in words) [2]: no inhibition

SMILES: O=c1c(O)c(-c2ccc(O)c(O)c2)oc2cc(O)cc(O)c12 [quercetin]
- inhibition of leukocyte-type 12-lipoxygenase activity at 6 μM (in words) ([3]; preincubated 5 min with 6 μM, no dilution): almost completely inhibited
- reversibility of leukocyte-type 12-lipoxygenase inhibition after dilution ([3]; preincubation 6 μM 5 min at 30 °C, 200-fold dilution, 0, 5, 15 and 30 min before reaction): quickly recovered

The next lines start with the values.

- inhibitory effect on leukocyte-type 12-lipoxygenase activity (in words) [1]: did not inhibit
SMILES: CC(C)=CCC/C(C)=C/CO[C@@H]1O[C@H](CO)[C@@H](OC(=O)/C=C/c2ccc(O)cc2)[C@H](O[C@@H]2O[C@@H](C)[C@H](O)[C@@H](O)[C@H]2O)[C@H]1O [kudingoside A]

- inhibitory effect on leukocyte-type 12-lipoxygenase activity (in words) [1]: lower inhibitory effect
SMILES: C/C(=C\CO[C@@H]1O[C@H](CO)[C@@H](OC(=O)/C=C/c2ccc(O)cc2)[C@H](O[C@@H]2O[C@@H](C)[C@H](O)[C@@H](O)[C@H]2O)[C@H]1O)C/C=C/C(C)(C)O [kudingoside B]

- IC50 [1]: 4200 nM
SMILES: C=C(C)C(CC/C(C)=C/CO[C@@H]1O[C@H](CO)[C@@H](OC(=O)/C=C/c2ccc(O)cc2)[C@H](O[C@@H]2O[C@@H](C)[C@H](O)[C@@H](O)[C@H]2O)[C@H]1O)OO (stereo partly drawn) [liguroside D]
